Assay [1] has as its target Serine/threonine-protein kinase PLK1 (Homo sapiens) (UniProt P53350). The assay is described as follows: Inhibition of His tagged recombinant full length human PLK1 expressed in baculovirus at 500 nM by Z'-LYTE assay.
Assay [2] addresses T1, Serine/threonine-protein kinase Chk1 (Homo sapiens) (UniProt O14757).
T1 sequence (whole entry): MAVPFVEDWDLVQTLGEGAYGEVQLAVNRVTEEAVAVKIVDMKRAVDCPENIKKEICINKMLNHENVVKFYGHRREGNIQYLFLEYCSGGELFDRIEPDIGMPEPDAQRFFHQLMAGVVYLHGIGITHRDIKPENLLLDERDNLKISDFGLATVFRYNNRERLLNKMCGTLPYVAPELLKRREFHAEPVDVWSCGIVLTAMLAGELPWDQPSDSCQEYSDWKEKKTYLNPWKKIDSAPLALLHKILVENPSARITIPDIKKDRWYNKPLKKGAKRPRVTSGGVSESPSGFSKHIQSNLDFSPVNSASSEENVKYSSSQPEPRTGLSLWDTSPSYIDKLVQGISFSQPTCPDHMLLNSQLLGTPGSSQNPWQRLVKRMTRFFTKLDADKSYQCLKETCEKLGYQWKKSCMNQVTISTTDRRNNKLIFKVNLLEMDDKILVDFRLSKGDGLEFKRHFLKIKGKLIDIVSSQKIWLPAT
The assay is described as follows: Inhibition of His tagged recombinant full length human CHK1 expressed in baculovirus at 500 nM by Z'-LYTE assay.

Assay [3] addresses Aurora kinase B (Homo sapiens) (UniProt Q96GD4). The assay is described as follows: Inhibition of His tagged recombinant full length human Aurora B expressed in baculovirus at 500 nM by Z'-LYTE assay.
Assay [4] deals with T2, Inhibitor of nuclear factor kappa-B kinase subunit beta (Homo sapiens) (UniProt O14920).
T2 sequence (whole entry): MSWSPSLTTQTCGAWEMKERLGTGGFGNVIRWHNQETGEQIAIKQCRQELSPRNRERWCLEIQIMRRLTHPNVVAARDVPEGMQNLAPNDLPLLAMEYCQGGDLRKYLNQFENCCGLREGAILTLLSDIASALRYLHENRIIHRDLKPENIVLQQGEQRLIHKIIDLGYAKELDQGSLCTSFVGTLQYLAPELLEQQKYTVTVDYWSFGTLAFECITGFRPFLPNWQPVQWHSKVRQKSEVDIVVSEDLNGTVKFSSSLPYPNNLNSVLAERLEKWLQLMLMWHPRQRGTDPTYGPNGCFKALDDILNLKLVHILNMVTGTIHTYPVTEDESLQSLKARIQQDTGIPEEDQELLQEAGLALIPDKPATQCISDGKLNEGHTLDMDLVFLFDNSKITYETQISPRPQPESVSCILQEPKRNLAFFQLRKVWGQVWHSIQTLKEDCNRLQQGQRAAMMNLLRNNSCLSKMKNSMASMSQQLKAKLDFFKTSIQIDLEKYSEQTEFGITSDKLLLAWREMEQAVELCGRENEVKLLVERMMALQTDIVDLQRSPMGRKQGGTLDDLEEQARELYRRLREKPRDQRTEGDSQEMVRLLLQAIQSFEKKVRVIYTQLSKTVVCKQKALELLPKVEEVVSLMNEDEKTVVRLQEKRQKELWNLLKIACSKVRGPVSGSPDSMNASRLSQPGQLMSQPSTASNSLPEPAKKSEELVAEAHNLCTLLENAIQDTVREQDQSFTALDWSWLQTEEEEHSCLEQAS
The assay is described as follows: Inhibition of GST tagged recombinant full length human IKK beta expressed in baculovirus at 500 nM by Z'-LYTE assay.

Assay [5] concerns the target Focal adhesion kinase 1 (Homo sapiens) (UniProt Q05397). Nature of the assay: Inhibition of GST tagged recombinant full length human PTK2 expressed in baculovirus at 500 nM by Z'-LYTE assay.
Assay [6] addresses MAP kinase-activated protein kinase 2 (Homo sapiens) (UniProt P49137). Nature of the assay: Inhibition of His tagged recombinant full length human MAPKAPK2 expressed in Escherichia coli at 500 nM by Z'-LYTE assay.
For assay [7], the target named is T3, Serine/threonine-protein kinase Nek1 (Homo sapiens) (UniProt Q96PY6).
T3 sequence (whole entry): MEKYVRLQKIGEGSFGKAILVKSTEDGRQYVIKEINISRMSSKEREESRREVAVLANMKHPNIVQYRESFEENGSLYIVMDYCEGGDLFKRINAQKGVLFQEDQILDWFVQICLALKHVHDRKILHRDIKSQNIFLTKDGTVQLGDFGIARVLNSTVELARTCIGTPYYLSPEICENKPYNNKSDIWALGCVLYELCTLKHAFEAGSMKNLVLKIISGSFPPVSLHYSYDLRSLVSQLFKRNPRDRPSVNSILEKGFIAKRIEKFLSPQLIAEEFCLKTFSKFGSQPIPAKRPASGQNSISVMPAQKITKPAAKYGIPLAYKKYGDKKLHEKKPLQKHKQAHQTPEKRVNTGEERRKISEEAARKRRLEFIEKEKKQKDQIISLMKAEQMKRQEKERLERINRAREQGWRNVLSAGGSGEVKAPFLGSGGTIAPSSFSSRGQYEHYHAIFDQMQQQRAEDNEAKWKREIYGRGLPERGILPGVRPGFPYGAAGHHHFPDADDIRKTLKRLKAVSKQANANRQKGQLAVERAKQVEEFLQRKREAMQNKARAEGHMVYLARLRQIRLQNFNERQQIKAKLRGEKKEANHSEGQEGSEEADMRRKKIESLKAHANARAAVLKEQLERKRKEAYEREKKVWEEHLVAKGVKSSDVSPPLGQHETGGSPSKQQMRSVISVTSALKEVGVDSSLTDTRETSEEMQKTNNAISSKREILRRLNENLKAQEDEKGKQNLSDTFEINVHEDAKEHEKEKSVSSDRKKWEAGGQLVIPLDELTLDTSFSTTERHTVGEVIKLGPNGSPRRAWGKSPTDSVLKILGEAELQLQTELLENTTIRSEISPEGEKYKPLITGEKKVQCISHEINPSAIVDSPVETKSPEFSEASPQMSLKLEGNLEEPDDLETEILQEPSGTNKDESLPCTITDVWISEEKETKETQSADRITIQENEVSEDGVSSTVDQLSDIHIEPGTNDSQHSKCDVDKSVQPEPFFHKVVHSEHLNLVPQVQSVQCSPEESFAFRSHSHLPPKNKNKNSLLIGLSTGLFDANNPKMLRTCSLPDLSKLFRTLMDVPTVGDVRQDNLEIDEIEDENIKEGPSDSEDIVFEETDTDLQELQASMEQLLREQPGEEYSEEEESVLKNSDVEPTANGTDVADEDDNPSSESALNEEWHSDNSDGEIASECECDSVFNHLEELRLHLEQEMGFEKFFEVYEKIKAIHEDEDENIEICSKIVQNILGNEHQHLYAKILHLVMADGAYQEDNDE
The assay is described as follows: Inhibition of GST tagged recombinant human NEK1 catalytic domain (1 to 505 residues) expressed in baculovirus at 500 nM by Z'-LYTE assay.

Assay [8] concerns the target Vascular endothelial growth factor receptor 2 (Homo sapiens) (UniProt P35968). Nature of the assay: Inhibition of His tagged recombinant human KDR (789 to 1356 residues) expressed in baculovirus at 500 nM by Z'-LYTE assay.

We go through three compounds from ChEMBL document CHEMBL3856204, “Chiral 6-aryl-furo[2,3-d]pyrimidin-4-amines as EGFR inhibitors” (Eur J Med Chem, 2016).

Chain of Vascular endothelial growth factor receptor 2 (Homo sapiens) (P35968 whole entry, the tested form may be a part): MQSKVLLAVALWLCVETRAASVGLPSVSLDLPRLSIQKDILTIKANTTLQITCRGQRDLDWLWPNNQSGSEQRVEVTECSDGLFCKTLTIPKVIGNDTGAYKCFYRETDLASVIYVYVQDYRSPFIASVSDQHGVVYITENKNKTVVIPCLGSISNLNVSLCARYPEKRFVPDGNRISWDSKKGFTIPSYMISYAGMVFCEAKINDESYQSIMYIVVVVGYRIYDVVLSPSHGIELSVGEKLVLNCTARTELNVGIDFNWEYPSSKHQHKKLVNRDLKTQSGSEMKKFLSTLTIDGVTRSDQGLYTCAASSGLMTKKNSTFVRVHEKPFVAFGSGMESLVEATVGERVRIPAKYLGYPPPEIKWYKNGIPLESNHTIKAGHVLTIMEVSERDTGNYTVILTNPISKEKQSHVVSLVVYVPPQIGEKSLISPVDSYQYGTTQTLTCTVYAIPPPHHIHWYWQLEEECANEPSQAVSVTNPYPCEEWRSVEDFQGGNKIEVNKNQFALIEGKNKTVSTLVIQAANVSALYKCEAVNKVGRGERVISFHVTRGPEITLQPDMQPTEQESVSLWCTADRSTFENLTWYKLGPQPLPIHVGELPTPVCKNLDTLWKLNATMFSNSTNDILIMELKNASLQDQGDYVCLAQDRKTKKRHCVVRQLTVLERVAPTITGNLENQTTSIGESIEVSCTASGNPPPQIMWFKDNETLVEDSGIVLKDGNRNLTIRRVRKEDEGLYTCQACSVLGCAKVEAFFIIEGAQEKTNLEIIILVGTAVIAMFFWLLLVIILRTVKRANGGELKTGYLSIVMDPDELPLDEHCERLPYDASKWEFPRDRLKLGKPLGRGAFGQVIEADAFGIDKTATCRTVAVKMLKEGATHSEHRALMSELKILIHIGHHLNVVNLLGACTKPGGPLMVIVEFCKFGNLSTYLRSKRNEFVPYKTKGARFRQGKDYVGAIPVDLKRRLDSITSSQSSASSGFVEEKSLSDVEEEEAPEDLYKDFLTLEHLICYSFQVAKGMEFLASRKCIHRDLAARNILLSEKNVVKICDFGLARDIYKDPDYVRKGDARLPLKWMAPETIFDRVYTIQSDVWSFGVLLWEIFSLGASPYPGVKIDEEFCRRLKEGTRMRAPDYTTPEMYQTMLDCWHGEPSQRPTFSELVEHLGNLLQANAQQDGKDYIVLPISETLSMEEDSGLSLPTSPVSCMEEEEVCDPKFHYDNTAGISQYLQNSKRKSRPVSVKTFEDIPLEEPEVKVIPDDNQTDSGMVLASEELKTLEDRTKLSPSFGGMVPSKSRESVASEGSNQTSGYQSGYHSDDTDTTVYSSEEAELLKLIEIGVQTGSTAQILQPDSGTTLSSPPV
Chain of Aurora kinase B (Homo sapiens) (Q96GD4 whole entry): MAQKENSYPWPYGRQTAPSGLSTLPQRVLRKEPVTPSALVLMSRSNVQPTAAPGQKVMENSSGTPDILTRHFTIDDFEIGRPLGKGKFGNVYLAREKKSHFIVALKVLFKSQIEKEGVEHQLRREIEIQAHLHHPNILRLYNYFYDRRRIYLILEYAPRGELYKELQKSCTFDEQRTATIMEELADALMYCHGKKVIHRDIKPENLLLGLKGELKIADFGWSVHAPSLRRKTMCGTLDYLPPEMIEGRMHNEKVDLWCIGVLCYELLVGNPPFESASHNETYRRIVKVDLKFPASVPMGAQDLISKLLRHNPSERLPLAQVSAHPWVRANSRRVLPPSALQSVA
Chain of Focal adhesion kinase 1 (Homo sapiens) (Q05397 2-1052 limits assumed): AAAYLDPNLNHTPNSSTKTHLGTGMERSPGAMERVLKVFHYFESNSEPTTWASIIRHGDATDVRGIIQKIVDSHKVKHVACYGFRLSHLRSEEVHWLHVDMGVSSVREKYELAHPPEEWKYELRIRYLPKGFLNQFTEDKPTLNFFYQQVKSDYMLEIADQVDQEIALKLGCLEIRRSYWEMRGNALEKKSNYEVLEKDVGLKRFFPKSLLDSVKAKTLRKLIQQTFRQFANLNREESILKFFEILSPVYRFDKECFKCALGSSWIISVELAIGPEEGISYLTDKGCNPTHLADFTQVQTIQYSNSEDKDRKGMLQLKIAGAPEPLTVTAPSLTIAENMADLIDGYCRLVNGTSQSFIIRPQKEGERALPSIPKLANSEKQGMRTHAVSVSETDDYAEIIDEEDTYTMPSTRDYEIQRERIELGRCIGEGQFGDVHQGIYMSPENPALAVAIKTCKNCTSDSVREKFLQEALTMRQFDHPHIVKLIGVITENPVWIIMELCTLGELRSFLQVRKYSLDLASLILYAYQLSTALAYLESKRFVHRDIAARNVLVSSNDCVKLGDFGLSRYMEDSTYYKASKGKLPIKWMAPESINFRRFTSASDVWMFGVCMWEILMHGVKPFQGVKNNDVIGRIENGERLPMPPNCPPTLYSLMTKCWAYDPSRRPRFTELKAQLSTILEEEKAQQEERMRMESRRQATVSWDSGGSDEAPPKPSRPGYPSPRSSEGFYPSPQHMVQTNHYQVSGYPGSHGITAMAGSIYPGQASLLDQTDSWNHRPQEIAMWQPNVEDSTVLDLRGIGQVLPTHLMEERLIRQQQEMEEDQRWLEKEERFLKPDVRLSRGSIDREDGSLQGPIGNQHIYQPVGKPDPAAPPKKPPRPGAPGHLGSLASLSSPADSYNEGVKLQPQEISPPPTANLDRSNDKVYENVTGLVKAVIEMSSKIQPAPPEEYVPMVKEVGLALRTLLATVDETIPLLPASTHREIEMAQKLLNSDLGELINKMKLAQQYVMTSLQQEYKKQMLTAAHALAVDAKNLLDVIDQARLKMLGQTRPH
Chain of Serine/threonine-protein kinase PLK1 (Homo sapiens) (P53350 whole entry): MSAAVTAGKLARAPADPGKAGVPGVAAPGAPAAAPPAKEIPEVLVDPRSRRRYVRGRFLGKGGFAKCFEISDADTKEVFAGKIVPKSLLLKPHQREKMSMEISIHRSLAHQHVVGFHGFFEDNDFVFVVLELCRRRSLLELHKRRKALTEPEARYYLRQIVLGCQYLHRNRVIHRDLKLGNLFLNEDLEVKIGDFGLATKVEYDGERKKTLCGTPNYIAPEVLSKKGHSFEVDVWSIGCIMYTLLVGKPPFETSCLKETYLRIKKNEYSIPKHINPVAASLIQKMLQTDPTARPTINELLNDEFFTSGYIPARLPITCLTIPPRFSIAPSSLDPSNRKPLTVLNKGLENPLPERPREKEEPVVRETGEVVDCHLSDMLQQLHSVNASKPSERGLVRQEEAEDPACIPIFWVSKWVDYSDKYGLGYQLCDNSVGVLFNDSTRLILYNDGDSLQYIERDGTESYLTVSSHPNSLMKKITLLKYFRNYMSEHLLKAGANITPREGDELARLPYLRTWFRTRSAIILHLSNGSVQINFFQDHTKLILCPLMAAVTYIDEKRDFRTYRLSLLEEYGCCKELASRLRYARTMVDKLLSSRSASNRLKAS
Chain of MAP kinase-activated protein kinase 2 (Homo sapiens) (P49137 whole entry, looked up): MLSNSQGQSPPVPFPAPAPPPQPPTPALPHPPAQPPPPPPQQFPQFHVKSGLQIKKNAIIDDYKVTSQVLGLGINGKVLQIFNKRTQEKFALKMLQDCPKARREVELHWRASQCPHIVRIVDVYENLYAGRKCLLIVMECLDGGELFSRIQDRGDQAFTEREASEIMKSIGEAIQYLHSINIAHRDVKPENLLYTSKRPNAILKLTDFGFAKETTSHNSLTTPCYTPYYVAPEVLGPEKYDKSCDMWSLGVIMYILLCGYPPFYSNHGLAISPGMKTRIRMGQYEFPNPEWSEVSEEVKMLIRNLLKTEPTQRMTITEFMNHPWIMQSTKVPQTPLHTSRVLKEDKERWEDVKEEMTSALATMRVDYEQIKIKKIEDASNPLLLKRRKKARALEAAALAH

By inhibition is commonly meant the change of the read-out against control, counted positive when it falls. Turning to `C#Cc1cccc(Nc2ncnc3cc(OCCOC)c(OCCOC)cc23)c1`, the inhibition is -9% in assay [1]; -7% in assay [2]; 20 to 44% in assay [3]; -5% in assay [4]; -3% in assay [5]; -1% in assay [6]. Also, the inhibition was -8% in assay [7] and 70% in assay [8].

With `C[C@@H](Nc1ncnc2oc(-c3ccc(NCCN(C)C)cc3)cc12)c1ccccc1`, the inhibition in assay [1] was 0%; in assay [2] it was -2%; in assay [3], 7 to 34%; in assay [4], 2%; in assay [5] it was 7%; in assay [6], 3%. For the same compound, the values for the inhibition in assay [7] and in assay [8] were 3% and 37%, respectively.

With `C[C@@H](Nc1ncnc2oc(-c3ccc(NCCN4CCCCC4)cc3)cc12)c1ccccc1`, the inhibition in assay [1] is -5%; in assay [2] it was -9%; in assay [3], 13 to 31%; in assay [4] it was 3%; in assay [5], 16%; in assay [6] it was 4%. Also, the inhibition in assay [7] was -1%; in assay [8], 44%.
